Patent publication US20040242591A1, “Oxazolidinone derivatives as pontential antimicrobials” (priority 2001, published 2004)

Legend:
Strep. pne. ATCC 6303 = assay: MIC by agar incorporation method, S. pneum 6303; type: cell-based, Streptococcus pneumoniae; conditions: Mueller Hinton agar, 10^4 CFU/spot, 18 hours
Text: 5) Strep. pne. ATCC 6303—Streptococcus pneumoniae ATCC 6303

S. pneum AB 34 = assay: MIC by agar incorporation method, S. pneum AB 34; type: cell-based, Streptococcus pneumoniae; parameters: unit not given here; conditions: Mueller Hinton agar, 10^4 CFU/spot, 18 hours
MRSA 15187 = assay: MIC by agar incorporation method, MRSA 15187; type: cell-based, Methicillin Resistant Staphylococcus aureus; parameters: unit not given here; conditions: Mueller Hinton agar, 10^4 CFU/spot, 24 hours
Text: 2) MRSA 15187—Methicillin Resistant Staphylococcus aureus

MRSA 33 = assay: MIC by agar incorporation method, MRSA 33; type: cell-based, Methicillin Resistant Staphylococcus aureus; parameters: unit not given here; conditions: Mueller Hinton agar, 10^4 CFU/spot, 24 hours
MRSA 562 = assay: MIC by agar incorporation method, MRSA 562; type: cell-based, Methicillin Resistant Staphylococcus aureus; parameters: unit not given here; conditions: Mueller Hinton agar, 10^4 CFU/spot, 24 hours
Strep.pyog. ATCC 19615 = assay: MIC by agar incorporation method, S.pyogenes 19615; type: cell-based, Streptococcus pyogenes; parameters: unit not given here; conditions: Mueller Hinton agar, 10^4 CFU/spot, 18 hours
Text: 6) Strep.pyog. ATCC 19615—Streptococcus pyogenes

VRE 6A = assay: MIC by agar incorporation method, VRE 6A; type: cell-based, Enterococcus faecium; parameters: unit not given here; conditions: Mueller Hinton agar, 10^4 CFU/spot, 18 hours
Text: 4) Ent. faecium […]—Enterococcus faecium 6A Van®, Cipro®

Ent. faecalis ATCC 29212 = assay: MIC by agar incorporation method, E.faecalis 29212; type: cell-based, Enterococcus faecalis; parameters: unit not given here; conditions: Mueller Hinton agar, 10^4 CFU/spot, 18 hours
Text: 3) Ent. faecalis ATCC 29212—Enterococcus faecalis ATCC 29212

S.aureus ATCC 25923 = assay: MIC by agar incorporation method, S.aureus 25923; type: cell-based, Staphylococus aureus; parameters: unit not given here; conditions: Mueller Hinton agar, 10^4 CFU/spot, 18 hours

O=C(CF)NC[C@H]1CN(c2ccc(N3CCC(Cc4ccc([N+](=O)[O-])o4)CC3)c(F)c2)C(=O)O1 [Compound No. 42, (S)-N-[[3-[3-Fluoro-4-[N-1-[4-{2-furyl(5-nitro)methyl}]piperinyl]phenyl]-2-oxo-5-oxazolidinyl]methyl]-fluoroacetamide]
In Vitro (MIC) S. pneum 6303 (Strep. pne. ATCC 6303): 1 µg/mL | In Vitro (MIC) S. pneum AB 34 (S. pneum AB 34): 2 | In Vitro (MIC) MRSA 15187 (MRSA 15187): 2 | In Vitro (MIC) MRSA 33 (MRSA 33): 4 | In Vitro (MIC) MRSA 562 (MRSA 562): 2 | In Vitro (MIC) S.pyogenes 19615 (Strep.pyog. ATCC 19615): 0.5 | In Vitro (MIC) VRE 6A (VRE 6A): 4 | In Vitro (MIC) E.faecalis 29212 (Ent. faecalis ATCC 29212): 4 | In Vitro (MIC) S.aureus 25923 (S.aureus ATCC 25923): 4

O=C(NC[C@H]1CN(c2ccc(N3CCN(Cc4ccc([N+](=O)[O-])o4)CC3)c(F)c2)C(=O)O1)C(F)F [Compound No. 45, (S)-N-[[3-[3-Fluoro-4-[N-1-[4-{2-furyl(5-nitro)methyl}]piperazinyl]phenyl]-2-oxo-5-oxazolidinyl]methyl]-difluoroacetamide]
In Vitro (MIC) S. pneum 6303 (Strep. pne. ATCC 6303): 0.5 µg/mL | In Vitro (MIC) S. pneum AB 34 (S. pneum AB 34): 2 | In Vitro (MIC) MRSA 15187 (MRSA 15187): 1 | In Vitro (MIC) MRSA 33 (MRSA 33): 2 | In Vitro (MIC) MRSA 562 (MRSA 562): 2 | In Vitro (MIC) S.pyogenes 19615 (Strep.pyog. ATCC 19615): 0.5 | In Vitro (MIC) VRE 6A (VRE 6A): 2 | In Vitro (MIC) E.faecalis 29212 (Ent. faecalis ATCC 29212): 2 | In Vitro (MIC) S.aureus 25923 (S.aureus ATCC 25923): 2

O=C(CCl)NC[C@H]1CN(c2ccc(N3CCN(Cc4ccc([N+](=O)[O-])o4)CC3)c(F)c2)C(=O)O1 [Compound No. 46]
In Vitro (MIC) S. pneum 6303 (Strep. pne. ATCC 6303): 0.5 µg/mL | In Vitro (MIC) S. pneum AB 34 (S. pneum AB 34): 1 | In Vitro (MIC) MRSA 15187 (MRSA 15187): 2 | In Vitro (MIC) MRSA 33 (MRSA 33): 2 | In Vitro (MIC) MRSA 562 (MRSA 562): 2 | In Vitro (MIC) S.pyogenes 19615 (Strep.pyog. ATCC 19615): 0.5 | In Vitro (MIC) VRE 6A (VRE 6A): 2 | In Vitro (MIC) E.faecalis 29212 (Ent. faecalis ATCC 29212): 2 | In Vitro (MIC) S.aureus 25923 (S.aureus ATCC 25923): 2

O=C(CCl)NC[C@H]1CN(c2ccc(N3CCN(Cc4ccc([N+](=O)[O-])s4)CC3)c(F)c2)C(=O)O1 [Compound No. 47, (S)-N-[[3-[3-Fluoro-4[N-1[4-[2-thiophenyl-(5-nitro)methyl}]piperazinyl]-phenyl]-2-oxo-5-oxazolidinyl]methyl]monochloroacetamide]
In Vitro (MIC) S. pneum 6303 (Strep. pne. ATCC 6303): 2 µg/mL | In Vitro (MIC) S. pneum AB 34 (S. pneum AB 34): 4 | In Vitro (MIC) MRSA 15187 (MRSA 15187): 4 | In Vitro (MIC) MRSA 33 (MRSA 33): 4 | In Vitro (MIC) MRSA 562 (MRSA 562): 4 | In Vitro (MIC) S.pyogenes 19615 (Strep.pyog. ATCC 19615): 1 | In Vitro (MIC) VRE 6A (VRE 6A): 4 | In Vitro (MIC) E.faecalis 29212 (Ent. faecalis ATCC 29212): 4 | In Vitro (MIC) S.aureus 25923 (S.aureus ATCC 25923): 4

O=C(CCl)NC[C@H]1CN(c2ccc(N3CCN(Cc4cc(Br)c([N+](=O)[O-])s4)CC3)c(F)c2)C(=O)O1 [Compound No. 48]
In Vitro (MIC) S. pneum 6303 (Strep. pne. ATCC 6303): 16 µg/mL | In Vitro (MIC) S. pneum AB 34 (S. pneum AB 34): 16 | In Vitro (MIC) MRSA 15187 (MRSA 15187): 4 | In Vitro (MIC) MRSA 33 (MRSA 33): 4 | In Vitro (MIC) MRSA 562 (MRSA 562): 4 | In Vitro (MIC) S.pyogenes 19615 (Strep.pyog. ATCC 19615): 16 | In Vitro (MIC) VRE 6A (VRE 6A): 2 | In Vitro (MIC) E.faecalis 29212 (Ent. faecalis ATCC 29212): 2 | In Vitro (MIC) S.aureus 25923 (S.aureus ATCC 25923): 4

CC(Cl)C(=O)NC[C@H]1CN(c2ccc(N3CCN(Cc4cc(Br)c([N+](=O)[O-])s4)CC3)c(F)c2)C(=O)O1 (stereo partly drawn) [Compound No. 51]
In Vitro (MIC) S. pneum 6303 (Strep. pne. ATCC 6303): 16 µg/mL | In Vitro (MIC) S. pneum AB 34 (S. pneum AB 34): 16 | In Vitro (MIC) MRSA 15187 (MRSA 15187): 8 | In Vitro (MIC) MRSA 33 (MRSA 33): 8 | In Vitro (MIC) MRSA 562 (MRSA 562): 8 | In Vitro (MIC) S.pyogenes 19615 (Strep.pyog. ATCC 19615): 16 | In Vitro (MIC) VRE 6A (VRE 6A): 8 | In Vitro (MIC) E.faecalis 29212 (Ent. faecalis ATCC 29212): 8 | In Vitro (MIC) S.aureus 25923 (S.aureus ATCC 25923): 8

CC(=O)NC[C@H]1CN(c2ccc(N3CCCN(Cc4ccc([N+](=O)[O-])o4)CC3)c(F)c2)C(=O)O1 [Compound No. 52, (S)-N-[[3-[3-Fluoro-4-[N-1-[4-{2-furyl(5-nitro)methyl}]homopiperazinyl]phenyl]-2-oxo-5-oxazolidinyl]methyl]acetamide]
In Vitro (MIC) S. pneum 6303 (Strep. pne. ATCC 6303): 1 µg/mL | In Vitro (MIC) S. pneum AB 34 (S. pneum AB 34): 4 | In Vitro (MIC) MRSA 15187 (MRSA 15187): 2 | In Vitro (MIC) MRSA 33 (MRSA 33): 2 | In Vitro (MIC) MRSA 562 (MRSA 562): 1 | In Vitro (MIC) S.pyogenes 19615 (Strep.pyog. ATCC 19615): 1 | In Vitro (MIC) VRE 6A (VRE 6A): 2 | In Vitro (MIC) E.faecalis 29212 (Ent. faecalis ATCC 29212): 2 | In Vitro (MIC) S.aureus 25923 (S.aureus ATCC 25923): 2

CC(=O)NC[C@H]1CN(c2ccc(N3CCCN(C(=O)c4ccc([N+](=O)[O-])s4)CC3)c(F)c2)C(=O)O1 [Compound No. 54, (S)-N-[[3-[3-Fluoro-4-[N-1-[4-{2-thiophenoyl-(5-nitro)}]homopiperazinyl]phenyl]-2-oxo-5-oxazolidinyl]methyl]acetamide]
In Vitro (MIC) S. pneum 6303 (Strep. pne. ATCC 6303): 8 µg/mL | In Vitro (MIC) S. pneum AB 34 (S. pneum AB 34): 8 | In Vitro (MIC) MRSA 15187 (MRSA 15187): 0.5 | In Vitro (MIC) MRSA 33 (MRSA 33): 0.5 | In Vitro (MIC) MRSA 562 (MRSA 562): 0.5 | In Vitro (MIC) S.pyogenes 19615 (Strep.pyog. ATCC 19615): 0.25 | In Vitro (MIC) VRE 6A (VRE 6A): 0.5 | In Vitro (MIC) E.faecalis 29212 (Ent. faecalis ATCC 29212): 1 | In Vitro (MIC) S.aureus 25923 (S.aureus ATCC 25923): 1

CC(=O)NC[C@H]1CN(c2ccc(N3CCCN(C(=O)c4ccc([N+](=O)[O-])o4)CC3)c(F)c2)C(=O)O1 [Compound No. 55, (S)-N-[[3-[3-Fluoro-4-[N-1-[4-{2-furoyl-(5-nitro)}]homopiperazinyl]phenyl]-2-oxo-5-oxazolidinyl]methyl]acetamide]
In Vitro (MIC) S. pneum 6303 (Strep. pne. ATCC 6303): 8 µg/mL | In Vitro (MIC) S. pneum AB 34 (S. pneum AB 34): 8 | In Vitro (MIC) MRSA 15187 (MRSA 15187): 0.5 | In Vitro (MIC) MRSA 33 (MRSA 33): 2 | In Vitro (MIC) MRSA 562 (MRSA 562): 1 | In Vitro (MIC) S.pyogenes 19615 (Strep.pyog. ATCC 19615): 4 | In Vitro (MIC) VRE 6A (VRE 6A): 0.25 | In Vitro (MIC) E.faecalis 29212 (Ent. faecalis ATCC 29212): 0.25 | In Vitro (MIC) S.aureus 25923 (S.aureus ATCC 25923): 2

CC(=O)NC[C@H]1CN(c2ccc(N3CCN(Cc4ccc([N+](=O)[O-])o4)CC3C)c(F)c2)C(=O)O1 (stereo partly drawn) [Compound No. 58, (S)-N-[[3-[3-Fluoro-4-[N-1-[2-methyl-4-{2-furyl(5-nitro)methyl}]-piperazinyl]phenyl]-2-oxo-5-oxazolidinyl]methyl]acetamide]
In Vitro (MIC) S. pneum 6303 (Strep. pne. ATCC 6303): 8 µg/mL | In Vitro (MIC) S. pneum AB 34 (S. pneum AB 34): 16 | In Vitro (MIC) MRSA 15187 (MRSA 15187): 4 | In Vitro (MIC) MRSA 33 (MRSA 33): 4 | In Vitro (MIC) MRSA 562 (MRSA 562): 2 | In Vitro (MIC) S.pyogenes 19615 (Strep.pyog. ATCC 19615): 4 | In Vitro (MIC) VRE 6A (VRE 6A): 4 | In Vitro (MIC) E.faecalis 29212 (Ent. faecalis ATCC 29212): 4 | In Vitro (MIC) S.aureus 25923 (S.aureus ATCC 25923): 4

CC(=O)NC[C@H]1CN(c2ccc(N3CCN(C(=O)c4ccc([N+](=O)[O-])o4)CC3C)c(F)c2)C(=O)O1 (stereo partly drawn) [Compound No. 59, (S)-N-[[3-[3-Fluoro-4-[N-1-[2-methyl-4-{2furoyl-(5-nitro)}]-piperazinyl]phenyl]-2-oxo-5-oxazolidinyl]methyl]acetamide]
In Vitro (MIC) S. pneum 6303 (Strep. pne. ATCC 6303): 8 µg/mL | In Vitro (MIC) S. pneum AB 34 (S. pneum AB 34): 8 | In Vitro (MIC) MRSA 15187 (MRSA 15187): 1 | In Vitro (MIC) MRSA 33 (MRSA 33): 1 | In Vitro (MIC) MRSA 562 (MRSA 562): 1 | In Vitro (MIC) S.pyogenes 19615 (Strep.pyog. ATCC 19615): 8 | In Vitro (MIC) VRE 6A (VRE 6A): 2 | In Vitro (MIC) E.faecalis 29212 (Ent. faecalis ATCC 29212): 1 | In Vitro (MIC) S.aureus 25923 (S.aureus ATCC 25923): 2

CC(=O)NC[C@H]1CN(c2ccc(N3CCN(C(=O)c4ccc([N+](=O)[O-])s4)CC3C)c(F)c2)C(=O)O1 (stereo partly drawn) [Compound No. 60, (S)-N-[[3-[3-Fluoro-4-[N-1-[2-methyl-4-{2-thiophenoyl-(5-nitro)}]-piperazinyl]phenyl]-2-oxo-5-oxazolidinyl]methyl]acetamide]
In Vitro (MIC) S. pneum 6303 (Strep. pne. ATCC 6303): 4 µg/mL | In Vitro (MIC) S. pneum AB 34 (S. pneum AB 34): 4 | In Vitro (MIC) MRSA 15187 (MRSA 15187): <0.125 | In Vitro (MIC) MRSA 33 (MRSA 33): <0.125 | In Vitro (MIC) MRSA 562 (MRSA 562): <0.125 | In Vitro (MIC) S.pyogenes 19615 (Strep.pyog. ATCC 19615): 0.5 | In Vitro (MIC) VRE 6A (VRE 6A): 1 | In Vitro (MIC) E.faecalis 29212 (Ent. faecalis ATCC 29212): 1 | In Vitro (MIC) S.aureus 25923 (S.aureus ATCC 25923): 0.25
